Key:
[1] = Embodiment 10: resveratrol:curcumin ratio effect (with ELP) on body weight gain of high-fat diet rats; assay type: in vivo, Sprague-Dawley rats; settings: 5 mg/mL with ELP, relative to HFD group 100.0±25.7%
Protocol: The body weight of each rat was recorded and defined as the “post-experimental body weight” of each rat. The “total body weight gain” of each rat was obtained by subtracting its “pre-experimental body weight” from its “post-experimental body weight”. The “relative weight gain” was obtained by dividing the total body weight gain of each group by the total body weight gain of the HFD group.
The only differences were the ratio of resveratrol and curcumin.
In this experiment, the ratios of resveratrol to curcumin in the first group to the eighth group were 0:1, 1:0, 1:19, 9:1, 1:1, 1:30, 1:50, 20:1, respectively, and the final concentrations of resveratrol and curcumin in the pharmaceutical compositions prepared in the first to the eighth group were 5 mg/mL. That is, the preparation method of pharmaceutical composition in the first to the eighth group, the weight ratios of resveratrol to curcumin were 0:1, 1:0, 1:19, 9:1, 1:1, 1:30, 1:50, 20:1, respectively, and the final concentrations of resveratrol and curcumin in the prepared pharmaceutical compositions were 5 mg/mL. Wherein, when the final concentration of drug was presented as mg/mL, it indicated the number of milligrams of resveratrol and curcumin per milliliter of pharmaceutical composition.

[2] = system: adipose tissue in the inferior inguinal region; assay: Embodiment 10: observation of the injected inferior inguinal region after dissection; assay type: in vivo, Sprague-Dawley rats; settings: FIG. 11A-F
Excerpt: There were 9 groups in this experiment, that is, the HFD group, the curcumin group, the resveratrol group, the UL003C group, the UL003R group, the UL005 group, the UL006 group, the UL003C6 group, and the UL003R4 group. The rats were fed and injected in the same manner described in Embodiment 9.

[3] = system: lower inguinal subcutaneous fat; assay: Embodiment 10: resveratrol:curcumin ratio effect (with ELP) on subcutaneous fat of high-fat diet rats; assay type: in vivo, Sprague-Dawley rats; settings: 5 mg/mL with ELP, injected as in Embodiment 9, relative to HFD group 100±22.3%
Excerpt: The bilateral lower inguinal subcutaneous fat pads of rats were dissected and weighed, and the weights of the bilateral lower inguinal subcutaneous fat pads were summed to calculate the amount of lower inguinal subcutaneous fat. […] The data were presented as mean±SD and analyzed by one-way ANOVA. Statistical results were shown as symbols or letters. Different symbols or letters indicates statistically significant difference (p<0.05), and identical symbols or letters indicates no statistically significant difference (p>0.05).
The preparation of pharmaceutical composition (curcumin solution, resveratrol solution, UL003C solution, UL003R solution, UL005 solution, UL006 solution, UL003C6 solution, or UL003R4 solution) in each group was roughly the same as the experimental procedure in Experiment 9. The only differences were the ratio of resveratrol and curcumin. In this experiment, the guideline of adding all of the ratio of resveratrol and curcumin, the weight of ELP, and the weight of normal saline for injection was shown in Table 1.
In this experiment, the ratios of resveratrol to curcumin in the first group to the eighth group were 0:1, 1:0, 1:19, 9:1, 1:1, 1:30, 1:50, 20:1, respectively, and the final concentrations of resveratrol and curcumin in the pharmaceutical compositions prepared in the first to the eighth group were 5 mg/mL. […]

[4] = system: mature adipocytes (3T3-L1); assay: Adipocyte apoptosis assay (V), Annexin V/PI flow cytometry; assay type: cell-based; settings: 50 ppm, 24 hours, DMSO control 5.14±2.05%
Protocol: 3T3-L1 cells were incubated in 12-well plates with 1×10^5 cells per well. The medium was replaced with a DMI medium containing 5 μg/ml of insulin, 0.1 μM of dexamethasone, and 0.5 mM of 3-isobutyl-1-methylxanthine (referred as IBMX) on the third day of incubation. After seven days incubation in the medium containing differentiation agent and waiting until the adipocyte cells matures, with the exception of the DMSO solvent control group, 50 ppm of curcumin, resveratrol, composition UL003C6, composition UL003C5, composition UL003C4, composition UL003C3, composition UL003C2, composition UL003C1, composition UL003B, composition UL003R1, composition UL003R2, and composition UL003R3 were added to different wells respectively; there are 13 groups in the experiment, and four replicates were performed in each group.
Please refer to Table 1, which presents the experimental matters and their final concentration in each group. […]
After administration process and 24 hours incubation, cells were collected and Annexin V/PI stain was performed. Cell apoptosis was analyzed by flow cytometry, wherein Annexin V−PI− cells represented the number of the survival mature adipocytes, and Annexin V+PI+ cells represented the number of the apoptotic mature adipocytes; this method is used to compare the apoptosis degree induced by the experimental matters in each group.

[5] = system: mature adipocytes (3T3-L1); assay: Adipocyte apoptosis assay (IV), Annexin V/PI flow cytometry; assay type: cell-based; settings: 100 ppm, 24 hours
Protocol: In this embodiment, the effect of composition UL003C in the present invention on mature adipocytes apoptosis promotion was compared with that of the well-known sodium deoxycholate. In this embodiment, 3T3-L1 cells were incubated in 12-well plates with 1×10^5 cells per well. The medium was replaced with an incubation fluid containing 5 μg/ml of insulin differentiation agent, 1 μM of dexamethasone, and 0.5 mM of 3-isobutyl-1-methylxanthine on the fourth day of incubation. After four days incubation in the incubation fluid containing differentiation agent and waiting until the adipocyte cells matures, with the exception of the DMSO solvent control group, 100 ppm of composition UL003C and sodium deoxycholate were added to different wells respectively; there are three groups in the experiment, and three replicates were performed in each group. After administration process and 24 hours incubation, cells were collected and Annexin V/PI stain was performed. Cell apoptosis was analyzed by flow cytometry, wherein Annexin V−PI− cells represented the number of the survival mature adipocytes, and Annexin V+PI+ cells represented the number of the apoptotic mature adipocytes; this method is used to compare the apoptosis degree induced by the experimental matters in the two groups.

| Molecule | relative weight gain [1] [%] | ulcer / curcumin precipitation in the inferior inguinal region (injection site) [2] | relative weight of the lower inguinal subcutaneous fat [3] [%] | percentage of apoptotic cells [4] [%] | mature adipocytes apoptosis compared to DMSO solvent control group [5] |
| --- | --- | --- | --- | --- | --- |
| COc1cc(/C=C/C(=O)CC(=O)/C=C/c2ccc(O)c(OC)c2)ccc1O [curcumin] | 103.6±7.2 | curcumin precipitation was observed | 90.4±12.6 | 15.43±4.31 | – |
| Oc1ccc(C=Cc2cc(O)cc(O)c2)cc1 [resveratrol] | 91.7±11.4 | ulcer | 85.7±5.1 | 8.48±3.23 | – |
| sodium deoxycholate | – | – | – | – | no significant difference |
